Data reported in patent US20230112306A1, “METHODS OF CONTROLLING OR PREVENTING INFESTATION OF SOYBEAN PLANTS BY THE PHYTOPATHOGENIC MICROORGANISM CORYNESPORA CASSIICOLA” (SYNGENTA CROP PROTECTION AG, priority 2020, published 2023).

System: Corynespora cassiicola
Experiment: Corynespora cassiicola (target leaf spot) growth inhibition in nutrient broth, microtiter plate
Type: cell-based
Details: PDB broth, 24° C., photometric at 620 nm after 3-4 days, vs untreated check, read-out: % control of Corynespora cassiicola (inhibition of growth)
Experimental: Example 1: Corynespora Cassiicola (Target Leaf Spot) Conidia of the fungus from cryogenic storage were directly mixed into nutrient broth (PDB potato dextrose broth). A DMSO solution of the test compounds was placed into a microtiter plate (96-well format) and the nutrient broth containing the fungal spores was added to it. The test plates were incubated at 24° C. and the inhibition of growth (% control of Corynespora cassiicola) was determined photometrically after 3-4 days at 620 nm. The activity of a compound is derived by comparing the inhibition of growth in the treated test solution to the growth in the untreated check. The concentration of the compounds was 6.7, 2.2, 0.74, 0.25, and 0.082 ppm.

SMILES	inhibition at 0.25 ppm [%]	inhibition at 0.74 ppm [%]	inhibition at 2.2 ppm [%]	inhibition at 6.7 ppm [%]
CC1(C)N=C(c2cnc3c(F)cccc3c2)c2ccsc2C1(F)F [Ic, 7,7-Difluoro-4-(8-fluoro-3-quinolyl)-6,6-dimethyl-6,7-dihydro-1-thia-5-azaindene]	≥ 20	≥ 50	≥ 70	≥ 70
Cc1cc(C2=NC(C)(C)C(F)(F)c3ccccc32)cnc1C(F)F [la, 5-(4,4-Difluoro-3,3-dimethyl-3,4-dihydro-1-isoquinolyl)-2-(difluoromethyl)-3-methylpyridine]	≥ 20	≥ 50	≥ 70	≥ 70
